# Columns and labels:
# [1] = tested on: glioma cell lines U87 and U251; test: cell viability with DS, TMZ and the combination; assay type: cell-based; details: Homo sapiens, U-251, TMZ 200 μM, DS 200 nM, alone or combined
# Method: To investigate the ability of DS to modify the response of glioma cells to TMZ treatment, we evaluated the effects of TMZ (200 μM) alone, DS (200 nM) alone, and a combination of both TMZ and DS on the viability of the glioma cell lines U87 and U251 (Figure 5A).
# The antiproliferative effect of DS on cells growing in culture was determined using the CellTiter-Blue (Promega, Madison, WI) viability assay. The mean drug concentration required to inhibit cell proliferation by 50% (IC50) compared with vehicle-treated controls was calculated using CalcuSyn Version 2.0 software (Great ShelfordCambridge, United Kingdom).
# U87 GFP-LC3 cells = test: GFP-LC3 puncta detection (autophagy); assay type: cell-based, human; details: TMZ 125 μM, DS 100 nM, control 2%
# Description: To investigate the effects of DS, TMZ, or the TMZ/DS combination on autophagy in glioma cells, we transfected cells with GFP-LC3 constructs in addition to various drug treatment and control treatment regimens and examined the accumulation of punctate GFP-LC3 structures using fluorescence microscopy. During autophagy, LC3-II relocalizes to the autophagosomal membranes. Thus, the accumulation of GFP-LC3 puncta provides an effective way to detect autophagosomes. In control cells, GFP-LC3 punctate structures were not detected, but large numbers of GFP-LC3 punctate structures were found in cells treated with DS or TMZ (Figure 5C). […] Strikingly, the combination of DS and TMZ further induced autophagy in up to 50% of U87 cells.
# U87 GFP-LC3 cells were analyzed by using a fluorescence microscope, and the percentage of cells displaying GFP-LC3-positive puncta was quantified by counting 5 random fields in 3 independent experiments.
# U87 xenografts = test: U87 intracranial xenograft, DS, TMZ or DS + TMZ; details: U87 xenograft-bearing nude mice, TMZ 7.5 mg/kg
# Method: Data are presented as the mean ± SD of three experiments. […] D, Kaplan–Meier survival curves comparing the treatments using log-rank tests. DS and TMZ were compared with the control group, and DS + TMZ was compared with the control group, TMZ alone, and DS alone. E, Representative H&E-stained whole brain sections at 4 weeks after treatment. […] The tissue sections were incubated with antibodies against Ki-67.
# To evaluate the long-term antitumor effect of the TMZ/DS combination, we further assessed the effects of TMZ, DS, or the combination treatment on the survival rate of U87 xenograft-bearing nude mice, which indirectly reflected the survival of tumor-bearing mice relative to their tumor burden.
compound,measurement,setting,value
"Cn1nnc2c(C(N)=O)ncn2c1=O [TMZ, temozolomide, reference compound]",viability at 200 µM,[1],93%
same,cells with induced autophagy (GFP-LC3 puncta),U87 GFP-LC3 cells,10%
same,tumor burden compared with control groups,U87 xenografts,did not reduce the tumor burden

# From publication PMC5400620, “Preclinical therapeutic efficacy of a novel blood-brain barrier-penetrant dual PI3K/mTOR inhibitor with preferential response in PI3K/PTEN mutant glioma” (Oncotarget, 2017)
